Data from patent publication US20100267720A1, “Crystalline Forms of 2-Hydroxy-3- [5- (Morpholin- 4- Ylmethyl) Pyridin-2-YL] IH- Indole- 5 -Carbonitrile Citrate” (ASTRAZENECA AB, priority 2007, published 2010).

Experiments:
[1] = Chemical stability of the salt forms; type: physicochemical; details: compared with the hydrochloride salt of WO 03/082853
Excerpt: The term “chemical stability” means that the compound can be stored in an isolated form, or in the form of a formulation in which it is provided in admixture with pharmaceutically acceptable carriers, diluents or adjuvants (e.g., in an oral dosage form, such as tablet, capsule, etc.), under normal storage conditions, with little or no chemical degradation or decomposition.

[2] = Hygroscopicity by Dynamic Vapour Sorption Analysis (DVS); type: physicochemical; details: for moisture uptake: 25° C.
Description: The studies were undertaken using Dynamic Vapour Sorption Apparatus (DVS, Surface Measurement Systems, London UK). The apparatus consists of Cahn micobalance housed inside a temperature-controlled cabinet. All experiments were performed at 25° C. The DVS was used to characterize the moisture uptake (w/w %) at different relative humidities (RH). Samples (5-10 mg) were weighed directly into the DSV sample cup and exposed to different relative humidities.

[3] = 40% relative humidity (RH), citrate
[4] = 60% relative humidity (RH), citrate
[5] = 80% relative humidity (RH), citrate

moisture uptake [2, 3]	moisture uptake [2, 4]	moisture uptake [2, 5]	hygroscopicity (in words) ([2]; citrate)	SMILES	chemical stability (in words) [1]	hygroscopicity (in words) ([2]; listed as citrate salt of 2-hydroxy-3-[5-(morpholin-4-ylmethyl)pyridin-2-yl]1H-indole-5-ca)
–	–	–	–	N#Cc1ccc2[nH]c(O)c(-c3ccc(CN4CCOCC4)cn3)c2c1.O=C(O)CC(O)(CC(=O)O)C(=O)O [2-hydroxy-3-[5-(morpholin-4-ylmethyl)pyridin-2-yl]1H-indole-5-carbonitrile citrate]	improved chemical stability over the hydrochloride salt	lower hygroscopicity than the hydrochloride salt
0.45 w/w %	0.52 w/w %	0.60 w/w %	very low hygroscopicity	N#Cc1ccc2[nH]c(O)c(-c3ccc(CN4CCOCC4)cn3)c2c1.O=C(O)CC(O)(CC(=O)O)C(=O)O [Citrate Form E, 2-Hydroxy-3-[5-(morpholin-4-ylmethyl)pyridin-2-yl]1H-indole-5-carbonitrile citrate]	–	–
3.2 w/w %	3.6 w/w %	3.7 w/w %	–	N#Cc1ccc2[nH]c(O)c(-c3ccc(CN4CCOCC4)cn3)c2c1.O=C(O)CC(O)(CC(=O)O)C(=O)O [Citrate Form D, 2-Hydroxy-3-[5-(morpholin-4-ylmethyl)pyridin-2-yl]1H-indole-5-carbonitrile citrate]	–	–
